Data set [1] concerns the target T1, P-glycoprotein (P-gp, ABCB1) (Homo sapiens, UniProt P08183). In words: vanadate-sensitive ATPase stimulation in membrane vesicles; also inhibits [3H]-paclitaxel efflux in KB-C2 cells. It counts as biochemical. Further details: ABCB1 in membrane vesicles of High Five insect cells.
In data set [2] the target is T1, P-glycoprotein (P-gp, ABCB1).

These results are taken from publication PMC6494935, “Glesatinib, a c-MET/SMO Dual Inhibitor, Antagonizes P-glycoprotein Mediated Multidrug Resistance in Cancer Cells” (Frontiers in Oncology, 2019).

In general, EC50 refers to the midpoint of the concentration-response curve.

T1 sequence (P08183 whole entry): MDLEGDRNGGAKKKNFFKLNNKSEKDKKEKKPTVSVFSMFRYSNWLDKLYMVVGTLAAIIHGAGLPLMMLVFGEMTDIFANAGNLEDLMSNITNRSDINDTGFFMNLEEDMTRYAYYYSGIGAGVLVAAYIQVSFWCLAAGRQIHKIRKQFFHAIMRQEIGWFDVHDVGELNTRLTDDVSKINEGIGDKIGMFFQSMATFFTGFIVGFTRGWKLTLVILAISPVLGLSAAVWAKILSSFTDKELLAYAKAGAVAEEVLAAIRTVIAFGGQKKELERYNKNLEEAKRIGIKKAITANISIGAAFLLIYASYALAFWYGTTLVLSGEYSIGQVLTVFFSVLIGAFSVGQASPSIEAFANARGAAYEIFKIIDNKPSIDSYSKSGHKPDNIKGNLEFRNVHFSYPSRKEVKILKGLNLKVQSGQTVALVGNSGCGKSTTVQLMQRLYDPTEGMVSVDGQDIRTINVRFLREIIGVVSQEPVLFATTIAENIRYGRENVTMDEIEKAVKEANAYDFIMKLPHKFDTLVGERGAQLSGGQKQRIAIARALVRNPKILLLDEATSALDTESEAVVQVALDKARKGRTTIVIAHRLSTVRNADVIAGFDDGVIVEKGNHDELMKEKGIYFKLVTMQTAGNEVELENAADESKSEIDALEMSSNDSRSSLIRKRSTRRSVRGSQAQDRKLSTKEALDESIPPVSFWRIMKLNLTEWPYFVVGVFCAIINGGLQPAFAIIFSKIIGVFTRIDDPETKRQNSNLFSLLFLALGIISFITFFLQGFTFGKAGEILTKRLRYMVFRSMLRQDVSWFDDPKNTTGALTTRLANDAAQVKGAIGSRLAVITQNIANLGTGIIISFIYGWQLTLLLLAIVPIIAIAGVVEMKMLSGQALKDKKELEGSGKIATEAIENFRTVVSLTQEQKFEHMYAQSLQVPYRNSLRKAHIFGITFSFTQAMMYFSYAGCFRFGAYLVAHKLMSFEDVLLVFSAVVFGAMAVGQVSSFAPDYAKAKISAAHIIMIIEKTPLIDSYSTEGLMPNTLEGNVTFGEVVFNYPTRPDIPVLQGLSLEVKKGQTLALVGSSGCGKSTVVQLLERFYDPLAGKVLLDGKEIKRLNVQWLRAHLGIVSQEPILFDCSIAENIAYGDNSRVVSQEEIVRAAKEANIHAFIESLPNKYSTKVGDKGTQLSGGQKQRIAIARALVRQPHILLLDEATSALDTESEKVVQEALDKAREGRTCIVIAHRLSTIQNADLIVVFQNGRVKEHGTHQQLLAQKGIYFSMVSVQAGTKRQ

`COCCNCc1ccc(-c2cc3nccc(Oc4ccc(NC(=S)NC(=O)Cc5ccc(F)cc5)cc4F)c3s2)nc1` [glesatinib]: it took 3.2 µM to reach a half-maximal effect in data set [1] (EC50). Turning to `CC(=O)O[C@H]1C(=O)[C@@]2(C)[C@H]([C@H](OC(=O)c3ccccc3)[C@]3(O)C[C@H](OC(=O)[C@H](O)[C@@H](NC(=O)c4ccccc4)c4ccccc4)C(C)=C1C3(C)C)[C@]1(OC(C)=O)CO[C@@H]1C[C@@H]2O` [paclitaxel], the “[3H]-paclitaxel accumulation and efflux in KB-C2 vs parental KB-3-1 cells” value in data set [2] was “While in P-gp overexpressing KB-C-2 cells, [^3H]-paclitaxel accumulation decreased significantly as shown in Figures 4A,C”.
